# Experimental data: patent publication US12459922B2 (Gilead Sciences, Inc., priority 2022, dated 2025)
# Test system: endogenous cellular STAT1 (phosphorylated at Tyr701) in NCI-H1373 cells
# Experiment: Phospho-STAT1 (Tyr701) LANCE Ultra TR-FRET Detection Assay
# Type: cell-based
# Conditions: Homo sapiens, NCI-H1373, 48 h, phospho-STAT1 (Tyr701) induction, read-out: NH1373 pSTAT1 EC50
row,SMILES,EC50 [nM]
1,"C[C@@H](CCCn1ccc2cc(-c3nccc(N)n3)c(F)cc2c1=O)Nc1cn[nH]c(=O)c1C(F)(F)F [Example 198, (S)-6-(4-aminopyrimidin-2-yl)-7-fluoro-2-(4-((6-oxo-5-(trifluoromethyl)-1,6-dihydropyridazin-4-yl)amino)pentyl)isoquinolin-1(2H)-one]",276
2,"C[C@@H](CCCn1ccc2cc(-c3ncc(N)cn3)c(F)cc2c1=O)Nc1cn[nH]c(=O)c1C(F)(F)F [Example 199, (S)-6-(5-aminopyrimidin-2-yl)-7-fluoro-2-(4-((6-oxo-5-(trifluoromethyl)-1,6-dihydropyridazin-4-yl)amino)pentyl)isoquinolin-1(2H)-one]",317
3,"C[C@@H](CCCn1cnc2cc(-c3ncc(Cl)cn3)c(F)cc2c1=O)Nc1cn[nH]c(=O)c1C(F)(F)F [Example 200, (S)-7-(5-chloropyrimidin-2-yl)-6-fluoro-3-(4-((6-oxo-5-(trifluoromethyl)-1,6-dihydropyridazin-4-yl)amino)pentyl)quinazolin-4(3H)-one]",29.1
4,"C[C@@H](CCCn1cnc2cc(-c3ncc(C(F)(F)F)c(N4CCOCC4)n3)c(F)cc2c1=O)Nc1cn[nH]c(=O)c1C(F)(F)F [Example 201, (S)-6-fluoro-7-(4-morpholino-5-(trifluoromethyl)pyrimidin-2-yl)-3-(4-((6-oxo-5-(trifluoromethyl)-1,6-dihydropyridazin-4-yl)amino)pentyl)quinazolin-4(3H)-one]",4.03
5,"C[C@@H](CCCn1ccc2cc(-c3ncc(Cl)c(N)n3)c(F)cc2c1=O)Nc1cn[nH]c(=O)c1C(F)(F)F [Example 202, (S)-6-(4-amino-5-chloropyrimidin-2-yl)-7-fluoro-2-(4-((6-oxo-5-(trifluoromethyl)-1,6-dihydropyridazin-4-yl)amino)pentyl)isoquinolin-1(2H)-one]",1.84
6,C[C@@H](CCCn1cnc2cc(-c3cc4c(cn3)C(F)(F)CC4)c(F)cc2c1=O)Nc1cn[nH]c(=O)c1C(F)(F)F [Example 204],45.1
7,COc1cnc(-c2cc3ccn(CCC[C@H](C)Nc4cn[nH]c(=O)c4C(F)(F)F)c(=O)c3cc2F)nc1N1CC2(COC2)C1 [Example 205],75.8
8,COc1cnc(-c2cc3ccn(CCC[C@H](C)Nc4cn[nH]c(=O)c4C(F)(F)F)c(=O)c3cc2F)nc1N1CC(O)C1 [Example 207],157
9,COc1cnc(-c2cc3ncn(CCC[C@H](C)Nc4cn[nH]c(=O)c4C(F)(F)F)c(=O)c3cc2F)nc1N1CC(O)C1 [Example 208],206
10,COc1cnc(-c2cc3ncn(CCC[C@H](C)Nc4cn[nH]c(=O)c4C(F)(F)F)c(=O)c3cc2F)nc1N1CC(C#N)C1 [Example 209],41.2
11,COc1cnc(-c2cc3ccn(CCC[C@H](C)Nc4cn[nH]c(=O)c4C(F)(F)F)c(=O)c3cc2F)nc1N1CC(F)(F)C1 [Example 210],132
12,COc1cnc(-c2cc3ncn(CCC[C@H](C)Nc4cn[nH]c(=O)c4C(F)(F)F)c(=O)c3cc2F)nc1N1CC(F)(F)C1 [Example 211],28.3
13,C[C@@H](CCCn1cnc2cc(-c3ccc(C(F)(F)F)c(N)n3)c(F)cc2c1=O)Nc1cn[nH]c(=O)c1C(F)(F)F [Example 212],36.6
14,C[C@@H](CCCn1ccc2cc(-c3ccc(C(F)(F)F)c(N)n3)c(F)cc2c1=O)Nc1cn[nH]c(=O)c1C(F)(F)F [Example 213],11.5
15,CNc1nc(-c2cc3ccn(CCC[C@H](C)Nc4cn[nH]c(=O)c4C(F)(F)F)c(=O)c3cc2F)ncc1OC [Example 214],17.9
16,"CCNc1nc(-c2cc3ccn(CCC[C@H](C)Nc4cn[nH]c(=O)c4C(F)(F)F)c(=O)c3cc2F)ncc1OC [Example 215, (S)-6-(4-(ethylamino)-5-methoxypyrimidin-2-yl)-7-fluoro-2-(4-((6-oxo-5-(trifluoromethyl)-1,6-dihydropyridazin-4-yl)amino)pentyl)isoquinolin-1(2H)-one]",36.1

row,SMILES,EC50 [nM]
1,"COc1cnc(-c2cc3ccn(CCC[C@H](C)Nc4cn[nH]c(=O)c4C(F)(F)F)c(=O)c3cc2F)nc1NC1CC1 [Example 216, (S)-6-(4-(cyclopropylamino)-5-methoxypyrimidin-2-yl)-7-fluoro-2-(4-((6-oxo-5-(trifluoromethyl)-1,6-dihydropyridazin-4-yl)amino)pentyl)isoquinolin-1(2H)-one]",39.3
2,"COc1cnc(-c2cc3ccn(CCC[C@H](C)Nc4cn[nH]c(=O)c4C(F)(F)F)c(=O)c3cc2F)nc1NC1COC1 [Example 217, (S)-7-fluoro-6-(5-methoxy-4-(oxetan-3-ylamino)pyrimidin-2-yl)-2-(4-((6-oxo-5-(trifluoromethyl)-1,6-dihydropyridazin-4-yl)amino)pentyl)isoquinolin-1(2H)-one]",1580
3,"COc1cnc(-c2cc3ccn(CCC[C@H](C)Nc4cn[nH]c(=O)c4C(F)(F)F)c(=O)c3cc2F)nc1NCCO [Example 218, (S)-7-fluoro-6-(4-((2-hydroxyethyl)amino)-5-methoxypyrimidin-2-yl)-2-(4-((6-oxo-5-(trifluoromethyl)-1,6-dihydropyridazin-4-yl)amino)pentyl)isoquinolin-1(2H)-one]",1100
4,"COc1cnc(-c2cc3ccn(CCC[C@H](C)Nc4cn[nH]c(=O)c4C(F)(F)F)c(=O)c3cc2F)nc1NC1(C(F)F)CC1 [Example 219, (S)-6-(4-((1-(difluoromethyl)cyclopropyl)amino)-5-methoxypyrimidin-2-yl)-7-fluoro-2-(4-((6-oxo-5-(trifluoromethyl)-1,6-dihydropyridazin-4-yl)amino)pentyl)isoquinolin-1(2H)-one]",430
5,"COc1cnc(-c2cc3ncn(CCC[C@H](C)Nc4cn[nH]c(=O)c4C(F)(F)F)c(=O)c3cc2F)nc1NC1CC1 [Example 220, (S)-7-(4-(cyclopropylamino)-5-methoxypyrimidin-2-yl)-6-fluoro-3-(4-((6-oxo-5-(trifluoromethyl)-1,6-dihydropyridazin-4-yl)amino)pentyl)quinazolin-4(3H)-one]",195
6,"C[C@@H](CCCn1ccc2cc(-c3ncc(C(F)F)c(NC4CC4)n3)c(F)cc2c1=O)Nc1cn[nH]c(=O)c1C(F)(F)F [Example 221, (S)-6-(4-(cyclopropylamino)-5-(difluoromethyl)pyrimidin-2-yl)-7-fluoro-2-(4-((6-oxo-5-(trifluoromethyl)-1,6-dihydropyridazin-4-yl)amino)pentyl)isoquinolin-1(2H)-one]",15.3
7,"C[C@@H](CCCn1ccc2cc(-c3ncc(C(F)F)c(NCCO)n3)c(F)cc2c1=O)Nc1cn[nH]c(=O)c1C(F)(F)F [Example 222, (S)-6-(5-(difluoromethyl)-4-((2-hydroxyethyl)amino)pyrimidin-2-yl)-7-fluoro-2-(4-((6-oxo-5-(trifluoromethyl)-1,6-dihydropyridazin-4-yl)amino)pentyl)isoquinolin-1(2H)-one]",258
8,"C[C@@H](CCCn1ccc2cc(-c3ncc(C(F)F)c(N[C@@H]4C[C@@H]4F)n3)c(F)cc2c1=O)Nc1cn[nH]c(=O)c1C(F)(F)F [Example 223, 6-(5-(difluoromethyl)-4-(((1R,2S)-2-fluorocyclopropyl)amino)pyrimidin-2-yl)-7-fluoro-2-((S)-4-((6-oxo-5-(trifluoromethyl)-1,6-dihydropyridazin-4-yl)amino)pentyl)isoquinolin-1(2H)-one]",33.3
9,"C[C@@H](CCCn1ccc2cc(-c3ccc(C(F)F)c(N)n3)c(F)cc2c1=O)Nc1cn[nH]c(=O)c1C(F)(F)F [Example 224, (S)-6-(6-amino-5-(difluoromethyl)pyridin-2-yl)-7-fluoro-2-(4-((6-oxo-5-(trifluoromethyl)-1,6-dihydropyridazin-4-yl)amino)pentyl)isoquinolin-1(2H)-one]",6.14
10,"C[C@@H](CCCn1ccc2cc(-c3ncc4c(n3)CS(=O)(=O)C4)c(F)cc2c1=O)Nc1cn[nH]c(=O)c1C(F)(F)F [Example 225, (S)-6-(6,6-dioxido-5,7-dihydrothieno[3,4-d]pyrimidin-2-yl)-7-fluoro-2-(4-((6-oxo-5-(trifluoromethyl)-1,6-dihydropyridazin-4-yl)amino)pentyl)isoquinolin-1(2H)-one]",957
11,"O=c1[nH]ncc(N[C@H]2CCC[C@@H](Cn3ccc4cc(-c5ncc(C(F)F)cn5)c(F)cc4c3=O)C2)c1C(F)(F)F [Example 226, 6-[5-(difluoromethyl)pyrimidin-2-yl]-7-fluoro-2-[[(1R,3S)-3-[[6-oxo-5-(trifluoromethyl)-1H-pyridazin-4-yl]amino]cyclohexyl]methyl]isoquinolin-1-one]",5.34
12,"Nc1nc(-c2cc3ccn(C[C@H]4CCC[C@H](Nc5cn[nH]c(=O)c5C(F)(F)F)C4)c(=O)c3cc2F)ncc1C(F)(F)F [Example 227, 6-(4-amino-5-(trifluoromethyl)pyrimidin-2-yl)-7-fluoro-2-(((1S,3S)-3-((6-oxo-5-(trifluoromethyl)-1,6-dihydropyridazin-4-yl)amino)cyclohexyl)methyl)isoquinolin-1(2H)-one]",15.7
13,"O=c1[nH]ncc(N[C@H]2CCC[C@H](Cn3ccc4cc(-c5ncc(C(F)(F)F)cn5)c(F)cc4c3=O)C2)c1C(F)(F)F [Example 228, 7-fluoro-2-(((1S,3S)-3-((6-oxo-5-(trifluoromethyl)-1,6-dihydropyridazin-4-yl)amino)cyclohexyl)methyl)-6-(5-(trifluoromethyl)pyrimidin-2-yl)isoquinolin-1(2H)-one]",10000
14,"O=c1[nH]ncc(N[C@H]2COC[C@@H](Cn3ccc4cc(-c5ncc(C(F)(F)F)cn5)c(F)cc4c3=O)C2)c1C(F)(F)F [Example 229, 7-fluoro-2-(((3R,5R)-5-((6-oxo-5-(trifluoromethyl)-1,6-dihydropyridazin-4-yl)amino)tetrahydro-2H-pyran-3-yl)methyl)-6-(5-(trifluoromethyl)pyrimidin-2-yl)isoquinolin-1(2H)-one]",72.5
15,"Nc1nc(-c2cc3ccn(C[C@@H]4COC[C@H](Nc5cn[nH]c(=O)c5C(F)(F)F)C4)c(=O)c3cc2F)ncc1C(F)(F)F [Example 230, 6-(4-amino-5-(trifluoromethyl)pyrimidin-2-yl)-7-fluoro-2-(((3R,5R)-5-((6-oxo-5-(trifluoromethyl)-1,6-dihydropyridazin-4-yl)amino)tetrahydro-2H-pyran-3-yl)methyl)isoquinolin-1(2H)-one]",115
